Molecular target: human RIP1 kinase domain (2-375) (Homo sapiens (Human), UniProt Q13546)
Assay: RIP1 kinase inhibition assay (Transcreener ADP biochemical enzyme assay)
Conditions: Ki app (Morrison tight-binding fit); 50 nM enzyme, 50 uM ATP, 2 hours incubation, fluorescence polarization
Protocol: RIP1 Kinase Inhibition Assays (Biochemical Assay):
The compounds of the present invention were tested for their capacity to inhibit RIP K activity as described below.
Enzyme assay: The ability of the receptor interacting protein kinase (RIPK1) to catalyze the hydrolysis of adenosine-5′-triphosphate (ATP) is monitored using the Transcreener ADP (adenosine-5′-diphosphate) assay (BellBrook Labs). Purified human RIP1 kinase domain (2-375) (50 nM) derived from a baculovirus-infected insect cell expression system is incubated with test compounds for 2 hours in 50 mM Hepes buffer (pH 7.5) containing 30 mM MgCl2, 1 mM dithiothreitol, 50 uM ATP, 0.002% Brij-35, and 0.5% dimethyl sulfoxide (DMSO). Reactions are quenched by the addition of 1× Bell Brooks Stop buffer B (20 mM Hepes (ph7.5), 40 mM ethylenediaminetetraacetic acid and 0.02% Brij-35) containing an additional 12 mM EDTA and 55 ug/mL ADP2 antibody and 4 nM ADP-AlexaFluor® 633 tracer. The tracer bound to the antibody is displaced by the ADP generated during the RIP1K reaction, which causes a decrease in fluorescence polarization that is measured by laser excitation at 633 nm with a FP microplate reader M1000. Fractional activity was plotted against test article concentration. Using Genedata Screener software (Genedata; Basel, Switzerland), the data were fit to the tight-binding apparent inhibition constant (Ki^app) Morrison equation [Williams, J. W. and Morrison, J. F. (1979) The kinetics of reversible tight-binding inhibition. Methods Enzymol 63: 437-67]. The following equation was used to calculate fractional activity and Ki^app:
[formula] where [E]T and [I]T are the total concentrations of active enzyme and test article, respectively.

Chain of human RIP1 kinase domain (2-375) (Q13546 2-375): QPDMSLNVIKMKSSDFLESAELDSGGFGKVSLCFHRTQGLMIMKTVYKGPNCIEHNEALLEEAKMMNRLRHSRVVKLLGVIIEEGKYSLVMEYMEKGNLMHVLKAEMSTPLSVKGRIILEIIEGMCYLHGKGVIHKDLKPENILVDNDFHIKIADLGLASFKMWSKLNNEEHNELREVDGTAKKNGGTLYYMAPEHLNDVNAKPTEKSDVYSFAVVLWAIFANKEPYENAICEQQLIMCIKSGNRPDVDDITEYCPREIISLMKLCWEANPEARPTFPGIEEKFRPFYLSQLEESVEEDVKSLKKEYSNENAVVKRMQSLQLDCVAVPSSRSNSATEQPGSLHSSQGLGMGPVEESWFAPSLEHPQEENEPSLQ

Compound	Ki [nM]
O=C(c1nc2n(n1)[C@H](c1ccccc1)C[C@@H]2F)N1CC2CC1CC2(F)F (mixture of isomers) [Example 87, (5,5-difluoro-2-azabicyclo[2.2.1]heptan-2-yl)-[rac-(5S,7S)-7-fluoro-5-phenyl-6,7-dihydro-5H-pyrrolo[1,2-b][1,2,4]triazol-2-yl]methanone]	150
CN(C(=O)c1nc2n(n1)[C@H](c1ccccc1)C[C@@H]2F)c1ccccc1 (racemic) [Example 90, rac-(5S,7S)-7-fluoro-N-methyl-N,5-diphenyl-6,7-dihydro-5H-pyrrolo[1,2-b][1,2,4]triazole-2-carboxamide]	620
CN(CC(F)F)C(=O)c1nc2n(n1)[C@H](c1ccccc1)C[C@@H]2F (racemic) [Example 91, rac-(5S,7S)-N-(2,2-difluoroethyl)-7-fluoro-N-methyl-5-phenyl-6,7-dihydro-5H-pyrrolo[1,2-b] [1,2,4]triazole-2-carboxamide]	42
CN(CC(F)(F)F)C(=O)c1nc2n(n1)[C@H](c1ccccc1)C[C@@H]2F (racemic) [Example 92, rac-(5S,7S)-7-fluoro-N-methyl-5-phenyl-N-(2,2,2-trifluoroethyl)-6,7-dihydro-5H-pyrrolo [1,2-b][1,2,4]triazole-2-carboxamide]	100
O=C(c1nc2n(n1)[C@H](c1ccccc1)C[C@@H]2F)N1CCC(Cc2ccccc2)C1 (mixture of isomers) [Example 93, (3-benzylpyrrolidin-1-yl)-[rac-(5S,7S)-7-fIuoro-5-phenyl-6,7-dihydro-5H-pyrrolo[1,2-b][1,2,4]triazol-2-yl]methanone]	30
CC1c2ccccc2CCN1C(=O)c1nc2n(n1)[C@H](c1ccccc1)C[C@@H]2F (mixture of isomers) [Example 97, (1-methyl-3,4-dihydro-1H-isoquinolin-2-yl)-[rac-(5S,7S)-7-fluoro-5-phenyl-6,7-dihydro-5H-pyrrolo[1,2-b][1,2,4]triazol-2-yl]methanone]	58
O=C(c1nc2n(n1)[C@@H](c1ccccc1)C[C@H]2F)N1CC2C(C1)C2(F)F (mixture of isomers) [Example 100, (6,6-difluoro-3-azabicyclo[3.1.0]hexan-3-yl)-[rac-(5R,7R)-7-fluoro-5-phenyl-6,7-dihydro-5H-pyrrolo[1,2-b][1,2,4]triazol-2-yl]methanone]	270

Next, values leading:

Ki [nM]	Compound
54	O=C(c1nc2n(n1)[C@H](c1ccccc1)C[C@@H]2F)N1CCc2ccncc2C1 (racemic) [Example 88, 3,4-dihydro-1H-2,7-naphthyridin-2-yl-[rac-(5S,7S)-7-fluoro-5-phenyl-6,7-dihydro-5H-pyrrolo[1,2-b][1,2,4]triazol-2-yl]methanone]
130	O=C(c1nc2n(n1)[C@H](c1ccccc1)C[C@@H]2F)N1CCc2ncccc2C1 (racemic) [Example 89, 7,8-dihydro-5H-1,6-naphthyridin-6-yl-[rac-(5S,7S)-7-fluoro-5-phenyl-6,7-dihydro-5H-pyrrolo[1,2-b][1,2,4]triazol-2-yl]methanone]
160	O=C(c1nc2n(n1)[C@H](c1ccccc1)C[C@@H]2F)N1CCCc2ccccc2C1 (racemic) [Example 94, [rac-(5S,7S)-7-fluoro-5-phenyl-6,7-dihydro-5H-pyrrolo[1,2-b][1,2,4]triazol-2-yl]-(1,3,4,5-tetrahydro-2-benzazepin-2-yl)methanone]
18	O=C(c1nc2n(n1)[C@H](c1ccccc1)C[C@@H]2F)N1CCc2cccc(F)c2C1 (racemic) [Example 95, (8-fluoro-3,4-dihydro-1H-isoquinolin-2-yl)-[rac-(5S,7S)-7-fluoro-5-phenyl-6,7-dihydro-5H-pyrrolo[1,2-b][1,2,4]triazol-2-yl]methanone]
57	CC1c2c(F)cccc2CCN1C(=O)c1nc2n(n1)[C@H](c1ccccc1)C[C@@H]2F (mixture of isomers) [Example 96, (8-fluoro-1-methyl-3,4-dihydro-1H-isoquinolin-2-yl)-[rac-(5S,7S)-7-fluoro-5-phenyl-6,7-dihydro-5H-pyrrolo[1,2-b][1,2,4]triazol-2-yl]methanone]

Source: patent publication US11071721B2, “Bicyclic amide compounds and methods of use thereof” (Genentech, Inc., priority 2016, dated 2021)
